Measured values from patent US20170348269A1, “TREATMENT OF UREA CYCLE DISORDERS IN NEONATES AND INFANTS” (Horizon Therapeutics, LLC, priority 2016, published 2017).
Several values for one entry are separate records, joined by “and”; a condition that tells them apart may be missing. Identical values can stand only once.

Tests used:
ammonia in UCD patients = assay: Open label fixed-sequence switch-over comparison of RAVICTI to NaPBA, 4 patients aged 2 months to 2 years; assay type: in vivo, human
Text: While the U.S. approval of RAVICTI® was based on its evaluation in 6 clinical trials involving over 100 adult and pediatric UCD patients aged 2 months old and above, only 7 patients aged 2 months to 2 years were enrolled in these studies. […] PAA exposure, also assessed as 24-hour area under the curve, was very similar. However, the number of patients in this age group studied at the time of RAVICTI's approval was small and considerable patient-to-patient variability was observed.

[1] = system: blood ammonia in pediatric patients with UCDs; assay: HPN-100-012 open-label fixed sequence switch-over study, blood ammonia control; assay type: in vivo, human
Text: HPN-100-012, an open-label, fixed sequence, switch-over study of the safety, PK and efficacy of HPN-100 compared to NaPBA in patients with UCDs, with a 12-month safety extension part. […] After review of all the safety data by the DSMB, 8 additional subjects were enrolled in the study after the switch-over phase was completed. The primary efficacy endpoint was the 24-hour AUC (area under the curve) for blood ammonia on Day 1 compared with Day 10.

[2] = biological target: T1, bile salt-stimulated lipase (Homo sapiens, UniProt P19835); conditions: cited from earlier work
T1 sequence (P19835 21-753): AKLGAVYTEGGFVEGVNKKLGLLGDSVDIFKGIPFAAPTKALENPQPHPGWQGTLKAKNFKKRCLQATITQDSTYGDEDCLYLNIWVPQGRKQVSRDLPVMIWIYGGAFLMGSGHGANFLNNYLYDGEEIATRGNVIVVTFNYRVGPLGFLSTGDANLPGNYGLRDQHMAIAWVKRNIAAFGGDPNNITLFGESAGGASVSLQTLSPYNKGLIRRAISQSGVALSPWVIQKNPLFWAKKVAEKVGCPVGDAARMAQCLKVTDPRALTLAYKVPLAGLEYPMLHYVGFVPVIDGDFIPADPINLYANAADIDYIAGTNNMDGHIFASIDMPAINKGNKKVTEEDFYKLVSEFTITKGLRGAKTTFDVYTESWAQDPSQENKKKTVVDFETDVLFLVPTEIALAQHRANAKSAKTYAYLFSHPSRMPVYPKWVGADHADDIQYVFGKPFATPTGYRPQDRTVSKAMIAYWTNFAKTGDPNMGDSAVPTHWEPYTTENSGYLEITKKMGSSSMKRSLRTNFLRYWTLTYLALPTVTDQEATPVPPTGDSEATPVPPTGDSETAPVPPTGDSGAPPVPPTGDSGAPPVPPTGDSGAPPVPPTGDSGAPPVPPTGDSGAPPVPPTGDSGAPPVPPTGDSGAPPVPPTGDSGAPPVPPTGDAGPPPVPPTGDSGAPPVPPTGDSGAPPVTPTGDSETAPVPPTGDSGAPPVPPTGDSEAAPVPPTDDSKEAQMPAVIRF

[3] = system: venous ammonia in pediatric patients with UCDs; assay: Studies 4/4E and 5, uncontrolled open-label studies in children under 2 years of age; assay type: in vivo, human
Description: Uncontrolled, open-label studies were conducted to assess monthly ammonia control and hyperammonemic crisis of RAVICTI® in pediatric patients with UCDs 2 months to less than 2 years of age (Study 4/4E, Study 5, and Study 6). Patients in Study 5 previously participated in Study 4/4E. A total of 17 pediatric patients with UCDs aged 2 months to less than 2 years participated in the studies.
A total of 7 patients with UCDs aged 2 months to less than 2 years participated in Studies 4/4E and 5. In these studies, there were 7, 6, 6, 6 and 3 pediatric patients who completed 1, 6, 9, 12 and 18 months, respectively (mean and median exposure of 15 and 17 months, respectively). Patients were converted from sodium phenylbutyrate to RAVICTI®. The dosage of RAVICTI® was calculated to deliver the same amount of PBA as the sodium phenylbutyrate dosage the patients were taking when they entered the study.
Patients received a mean RAVICTI® dose of 7.5 mL/m^2/day (8.2 g/m^2/day), with doses ranging from 3.3 to 12.3 mL/m^2/day (3.7 to 13.5 g/m^2/day). Patients were dosed three times a day (n=3) or four times a day (n=4).
Venous ammonia levels were monitored on days 1, 3 and 10 in Study 4 and at week 1 in Study 4E. Two patients had day 1 ammonia values of 122 micromol/L and 111 micromol/L respectively, neither had associated signs and symptoms of hyperammonemia.
During the extension period, venous ammonia levels were monitored monthly. Ammonia values across different laboratories were normalized (transformed) to a common normal pediatric range of 28 to 57 micromol/L for comparability. The mean venous ammonia values in pediatric patients at month 1, 3, 6, 9 and 12 were 58, 49, 34, 65, and 31 micromol/L during treatment with RAVICTI®, respectively.
Three patients reported a total of 3 hyperammonemic crises, as defined in Study 6. Hyperammonemic crises were precipitated by gastroenteritis, vomiting, infection or no precipitating event (one patient). There were 4 patients who had one venous ammonia level that exceeded 100 micromol/L which was not associated with a hyperammonemic crisis.

[4] = original scale, predefined non-inferiority upper margin 1.25
[5] = Studies 4/4E, 5 extension period, normalized to 28 to 57 micromol/L

Structure (SMILES): O=C(CCCc1ccccc1)OCC(COC(=O)CCCc1ccccc1)OC(=O)CCCc1ccccc1 [HPN-100, benzenebutanoic acid, 1′,1″-(1,2,3-propanetriyl) ester]
- PAA exposure assessed as 24-hour area under the curve, RAVICTI vs NaPBA (ammonia in UCD patients): very similar
- mean ammonia exposure assessed at 24-hour area under the curve, RAVICTI vs NaPBA (ammonia in UCD patients): non-inferior
- Mean blood ammonia at the 12-hour time point ([1]; HPN-100 Day 10, NaPBA Day 1, highest value for both treatments): 28.24 µmol/L
- Mean blood ammonia at the 8-h time point ([1]; HPN-100 Day 10, lowest value on HPN-100): 23.20 µmol/L
- 24-hour AUC for blood ammonia, HPN-100 vs NaPBA, upper 90% CI [1, 4]: 1.002
- 24-hour AUC for blood ammonia, HPN-100 vs NaPBA, upper 95% CI [1, 4]: 1.055
- ammonia AUC, median difference between treatments (HPN-100 vs NaPBA) ([1]; pediatric UCD patients 29 days to <6 years): -37.84 µmol·h/L
- 24-hour AUC for blood ammonia (primary efficacy endpoint), HPN-100 compared to NaPBA ([1]; pediatric UCD patients aged 29 days to <6 years, Day 1 (NaPBA) vs Day 10 (HPN-100), non-inferiority upper margin 1.25): non-inferior
- Blood ammonia levels postprandially at any given time point, HPN-100 (Day 10) vs NaPBA (Day 1) ([1]; postprandial): directionally lower
- hydrolysis in vitro by bile salt-stimulated lipase [2]: hydrolyze
- patients with one venous ammonia level exceeding 100 micromol/L not associated with a hyperammonemic crisis ([3]; Studies 4/4E, 5): 4 patients
- total hyperammonemic crises ([3]; Studies 4/4E, 5, reported by three patients): 3
- mean venous ammonia, month 1 [3, 5]: 58 µmol/L
- mean venous ammonia, month 3 [3, 5]: 49 µmol/L
- mean venous ammonia, month 6 [3, 5]: 34 µmol/L
- mean venous ammonia, month 9 [3, 5]: 65 µmol/L
- mean venous ammonia, month 12 [3, 5]: 31 µmol/L
- day 1 ammonia values of two individual patients ([3]; Studies 4/4E, no associated signs and symptoms of hyperammonemia, listed as RAVICTI®): 122 µmol/L and 111 µmol/L
- patients with venous ammonia levels less than 100 micromol/L at day 10/week 1 ([3]; Studies 4/4E, of the 7 patients): six
- day 10 ammonia value of the remaining patient ([3]; Study 4, asymptomatic): 168 µmol/L
